According to US6699834B1, “Method for treating cancer” (University of Maryland Biotechnology Institute, priority 1997, dated 2004):
Bridge positions count the residues as written; N and C are the ends. Ends that are not written are not given here.

Experiments:
[1] = system: HIV RNA and protein expression; assay: HIV RNA and protein expression in HIV-1 transgenic mice; type: in vivo
From the text: The HIV-1 transgenic mice used for this study contain 7.4 kb of foreign DNA, including 5.1 kb of the HIV-1 proviral genome deleted in the gag and pol genes and 2.3 kb of vector (Dickie et al., 1991, Virology 185:109-119). […] In addition, these mice develop severe hyperkeratotic skin lesions with marked expression of gp 120 and nef genes (Kopp et al., 1993, AIDS Res. Hum. Retroviruses 9:267-275; Vasli et al., 1994, AIDS Res. Hum. Retroviruses 10:1241-1250).
Heterozygous transgenic mothers were treated with the hCG preparation subcutaneously twice weekly. Pups received hCG via the mother's milk.
Gene expression was assayed in total RNA extracted from the skin of Tg26 mice with RNAzol. One microgram of RNA was reverse transcribed into cDNA using random hexamer primers and […] reverse transcriptase (Life Technologies, MD) in a final volume of 30 μl. One tenth of the cDNA reactions were used for PCR amplification of various HIV gene sequences (env, tat, rev, nef and vif). In addition, glyceraldehyde 3-phosphate dehydrogenase (GAPHD) mRNA was amplified for each sample for normalization. Following 25 cycles of amplification, 10% of the PCR product was resolved by electrophoresis through 2% agarose gels and processed for Southern hybridization using FITC-labeled oligonucleotide probes complimentary to internal sequences of the amplicons. Detection was performed by chemiluminescence (Amersham) and relative mRNA levels determined by densitometry after normalization with GAPDH mRNA levels.
Finally, certain fractions were tested for their ability to increase survival, promote weight gain and reduce HIV-1 gene expression in HIV-1 transgenic mice as described herein.

[2] = system: Kaposi's Sarcoma induced in mice; assay: Kaposi's Sarcoma tumors induced in mice by KS Y-1 cells; type: in vivo
Description: The effects of the peptides on KS tumor cells were also evaluated in vivo in the KS mouse model. To induce KS tumors in the mice, 1×10^6/ml KS Y-1 cells in 50 μl PBS or saline were injected subcutaneously into immunodeficient mice (beige-XID-BNX mice). […] Methods for detection of apoptosis (from tissue biopsies) were used, as described in Lunardi-Iskandar et al.(1995, Nature 375:64-68). Briefly, the samples were stained in situ for the presence of cells with DNA fragmentation. Tissue slides from formalin-fixed tumors were treated with terminal deoxynucleotide transferase for extension of DNA ends (hydroxyl 3′) and incorporation of digoxigenin-11-dUTP according to the manufacturer's instructions (Oncor, Gaithersburg, Md.). Anti-digoxigenin antibody conjugated with the enzyme peroxidase allowed detection of apoptotic cells, which stain brown, whereas viable cells stain blue.
Certain fractions were tested for activity in reducing Kaposi's Sarcoma lesions in the Kaposi's Sarcoma mouse model as described herein. In this assay, starting one week after injection of the KS Y-1 cells to induce Kaposi's sarcoma formation, the mice were injected subcutaneously with 100 IU hCG. […] After one week of the week of treatment with the hCG fractions, the KS lesions were examined for cell apoptosis and regression as described herein.
Certain fractions of the APL™ hCG and early pregnancy urine were assayed for their ability to elicit apoptosis in Kaposi's Sarcoma lesions induced by injection of KS Y-1 cells in mice (n=3 mice for each treatment). The mice were administered 100 μl subcutaneously of the particular fraction each day for one week.

[3] = system: hematopoietic progenitor cells; assay: Hematopoietic progenitor clonogenic assays (CFU-GEMM, BFU-e, CFU-GM); type: cell-based, human
Procedure, shortened: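 Normal bone marrow and cord blood progenitors (2×10^5 cells/ml) grown in methylcellulose with hCG preparations at 200 IU/ml or α/β-subunits and peptides at 100 μg/ml. Colonies (aggregates >50 cells) counted after 10 days of culture.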

prostate cancer cells = assay: Trypan blue cell death assay, prostate cancer cells; type: cell-based
Description: (§1) The hCG preparations, fractions of the early pregnancy urine and hCG APL™ SUPERDEX™ 200 fractionations (described herein), and certain β-hCG peptides were tested on prostate, lung, breast, and kidney cancer cells in vitro, and on prostate tumors in nude mice. […] The preparations fractions and peptides were also assayed using a clonogenic assay in which cells were seeded in methylcellulose in the presence or absence of test substance and then colonies were counted after a certain period of time. Cells were also examined for apoptosis by confocal microscopy.
The effects of hCG preparations, hCG fractions and β-hCG peptides were tested in prostate cancer cells both in vitro and in vivo. Cells were incubated in either 10% fetal bovine serum (FBS) or 3% fetal bovine serum plus hCG preparations, hCG fractions and β-hCG peptides.

lung cancer cells = assay: Trypan blue cell death assay, lung cancer cells; type: cell-based
Description: as §1
The effects of hCG preparations, hCG fractions and β-hCG peptides were tested in lung cancer cells in vitro. Lung cancer cells were incubated with the hCG preparations, hCG fractions and β-hCG peptides in both the trypan blue viability assay and the clonogenic assay.

**Q.** How did the “inhibition of HIV RNA and protein expression” value ([1]; inhibition of HIV RNA and protein expression in HIV-1 transgenic mice) turn out when “4. Circ 44-57: β-hCG 44-57 with cysteine substituted at position 44, circularized via disulfide bond (SEQ ID NO:26) (CLQGVLPALPQVVC; disulfide 1-14 (inferred))” was run?
**A.** The value was “+++ (“+++” represents greater than 70% effect)”.

**Q.** What about the “HIV-1 gene / protein expression in transgenic mice (in words)” value ([1]; pups dosed via mother's milk) of the same substance?
**A.** The value was “considerable inhibition”.

**Q.** What about the KS in vivo ([2]; inhibition of Kaposi's Sarcoma induced in mice) of the same substance?
**A.** The KS in vivo was “+++ (“+++” represents greater than 70% effect)”.

**Q.** And the “effect on KS tumors in mice (in words)” value ([2]; mouse, in vivo)?
**A.** Its value is “extensive cell death”.

**Q.** What about the “promotion of hematopoiesis (in words)” value ([3]; listed as circularized 44-57) of the same substance?
**A.** Its value is “directly promoted”.

**Q.** And the “promotion of hematopoiesis (in words)” value ([3]; listed as cyclized β-hCG peptide of amino acids 44-57)?
**A.** Its value is “pro-hematopoietic activity”.

**Q.** And the “Pro-hematopoiesis in vitro Enhancement” value ([3]; relative increase of hematopoietic colony cell number, hCG preparations 200 IU/ml, subunits and peptides 100 μg/ml)?
**A.** The value was “+++ (“+++” represents greater than 70% effect)”.

**Q.** What about the “percentage of cell death (trypan blue)” value (prostate cancer cells; 3% FBS, 200 μg/ml) of the same substance?
**A.** The value was 39%.

**Q.** And the “percentage of cell death (trypan blue)” value (prostate cancer cells; 3% FBS, 300 μg/ml)?
**A.** The value was 50%.

**Q.** What about the “percentage of cell death (trypan blue)” value (prostate cancer cells; 10% FBS, 200 μg/ml) of the same substance?
**A.** Its value is 29%.

**Q.** And the “percentage of cell death (trypan blue)” value (prostate cancer cells; 10% FBS, 300 μg/ml)?
**A.** Its value is 38%.

**Q.** And the “% dead cells” value (lung cancer cells; 200 μg/ml)?
**A.** The value was 42%.

**Q.** And the “% dead cells” value (lung cancer cells; 300 μg/ml)?
**A.** Its value is 59%.
